Reference: paper PMC10404669, “Vanillyl alcohol oxidase from Diplodia corticola: Residues Ala420 and Glu466 allow for efficient catalysis of syringyl derivatives” (The Journal of Biological Chemistry, 2023)

Target: T1, DcVAO (vanillyl alcohol oxidase) (Diplodia corticola, UniProt A0A1J9QSC2)
T1 construct: gene BKCO1_4900020
Assay: specific activity of purified enzyme, xylenol orange H2O2 assay
Type: biochemical

T1 sequence (A0A1J9QSC2 entry or part of it): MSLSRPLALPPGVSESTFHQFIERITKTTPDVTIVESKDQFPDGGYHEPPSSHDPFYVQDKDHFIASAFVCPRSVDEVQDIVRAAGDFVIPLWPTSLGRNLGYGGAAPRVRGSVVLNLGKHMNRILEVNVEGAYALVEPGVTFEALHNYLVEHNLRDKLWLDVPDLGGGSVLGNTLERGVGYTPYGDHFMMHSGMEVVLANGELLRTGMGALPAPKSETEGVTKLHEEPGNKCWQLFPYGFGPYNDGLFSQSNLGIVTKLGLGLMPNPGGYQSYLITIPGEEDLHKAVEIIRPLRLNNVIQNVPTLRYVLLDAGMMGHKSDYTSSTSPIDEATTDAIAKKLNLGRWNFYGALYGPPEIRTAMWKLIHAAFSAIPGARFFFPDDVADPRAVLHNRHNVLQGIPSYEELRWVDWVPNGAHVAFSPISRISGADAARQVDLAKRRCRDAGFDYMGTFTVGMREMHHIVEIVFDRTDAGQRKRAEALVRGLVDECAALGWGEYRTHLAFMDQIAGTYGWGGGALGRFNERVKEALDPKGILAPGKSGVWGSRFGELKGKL

COc1cc(CO)cc(OC)c1O [compound 6, 4-(hydroxymethyl)-2,6-dimethoxyphenol]
specific activity of purified enzyme, xylenol orange H2O2 assay: 6.3 ± 0.5 U mg^−1
